The nature of data set [1]: Cytotoxicity against human THP1 cells by MTT assay. The following applies: THP-1 cells. Type of data set: cell-based. On the technique in general: Formazan colour is commonly taken as a measure of viable cells.
For data set [2], the system named is Mycobacterium tuberculosis. Nature of the data set: Antitubercular activity against Mycobacterium tuberculosis H37Rv by microplate alamar blue assay. Type of data set: functional. On the technique in general: Resazurin is reduced to fluorescent resorufin, in cell work by metabolically active cells.
The nature of data set [3]: Selectivity index, ratio of CC50 for human THP1 cells to MIC for Mycobacterium tuberculosis H37Rv. It counts as toxicity, cell-based. To be noted: THP-1 cells, read-out: Selectivity Index.

This passage reports CC50, MIC and selectivity ratio results from ChEMBL document CHEMBL3286291, “Synthesis and biological evaluation of substituted 4,6-diarylpyrimidines and 3,5-diphenyl-4,5-dihydro-1H-pyrazoles as anti-tubercular agents” (Bioorg Med Chem Lett, 2014).

Molecules are shown by their SMILES.

In data set [1], `COc1cc(-c2cc(-c3ccc(Br)cc3)nc(N)n2)cc(OC)c1OC` had a CC50 of 100 µM. The compound also returned an MIC in data set [2] of 50 µM.
For `COc1cc(C2CC(c3ccc4c(c3)OCO4)=NN2C(C)=O)cc(OC)c1OC` (stereo unspecified), in that order: 200 µM and 100 µM.
`CC1=NN(C(=O)c2cc(-c3ccc(Cl)cc3)n[nH]2)C(=O)/C1=N/Nc1cccc(F)c1` returned a minimum inhibitory concentration (MIC) in data set [2] of 0.35 µg/mL.
In data set [1], `COc1ccc(-c2cc(-c3cc(OC)c(OC)c(OC)c3)nc(-c3cccnc3)n2)cc1` displayed a CC50 of 200 µM. The MIC in data set [2] was found to be 100 µM.
In data set [1], `COc1ccc(-c2cc(-c3cc(OC)c(OC)c(OC)c3)nc(N)n2)cc1` yielded a CC50 of 100 µM. Also, the selectivity ratio in data set [3] was found to be 4. This compound gave an MIC in data set [2] of 25 µM.
`COc1cc(-c2cc(-c3ccc4c(c3)OCO4)nc(N)n2)cc(OC)c1OC` gave a CC50 in data set [1] of 200 µM. In data set [2], this compound registered an MIC of more than 100 µM.
The like results for `COc1cc(C2=NN(C(C)=O)C(c3cc(OC)c(OC)c(OC)c3)C2)cc(OC)c1OC` (stereo unspecified) were, in that order, 200 µM and more than 100 µM.
For the compound `COc1ccc(C2=NN(C(C)=O)C(c3cc(OC)c(OC)c(OC)c3)C2)cc1` (stereo unspecified), half-maximal cytotoxicity in data set [1] (CC50) was put at 200 µM. Also, the selectivity ratio in data set [3] came out at 4. The compound further showed an MIC in data set [2] of 50 µM.
For the compound `COc1ccc(-c2cc(-c3ccc4c(c3)OCO4)nc(N)n2)cc1`, the MIC in data set [2] is more than 100 µM.
`COc1ccc(C2CC(c3ccc4c(c3)OCO4)=NN2C(C)=O)cc1` (stereo unspecified) came in with a CC50 in data set [1] of 200 µM. In data set [2], this compound showed an MIC of 100 µM.
For `COc1ccc(-c2cc(-c3cc(OC)c(OC)c(OC)c3)nc(-c3ccncc3)n2)cc1`, the MIC in data set [2] is more than 100 µM.
Turning to `COc1cc(C2CC(c3ccc(Br)cc3)=NN2C(C)=O)cc(OC)c1OC` (stereo unspecified), in data set [1], half-maximal cytotoxicity (CC50) was put at 100 µM. Besides, the selectivity ratio in data set [3] came out at 8. Moreover, 12.5 µM was the least that counted as inhibitory in data set [2] (MIC).
Turning to `COc1cc(-c2cc(-c3cc(OC)c(OC)c(OC)c3)nc(-c3ccncc3)n2)cc(OC)c1OC`, in data set [2], the minimum inhibitory concentration (MIC) was more than 100 µM.
Still for that read-out and setting: the result for `COc1cc(-c2cc(-c3ccc(Cl)cc3)nc(N)n2)cc(OC)c1OC` reads 50 µM; that for `COc1cc(-c2cc(-c3ccc(F)cc3)nc(N)n2)cc(OC)c1OC`, 50 µM.
As for `COc1cc(-c2cc(-c3ccc4c(c3)OCO4)nc(-c3ccncc3)n2)cc(OC)c1OC`, the CC50 in data set [1] stood at 400 µM. The MIC in data set [2] is more than 100 µM.
`CCSc1nc(Cl)c(C#N)c(-c2ccc(F)cc2F)n1` returned an MIC in data set [2] of 0.78 µg/mL.
The compound `COc1cc(C2CC(c3ccc(Cl)cc3)=NN2C(C)=O)cc(OC)c1OC` (stereo unspecified) displayed a CC50 in data set [1] of 100 µM. Moreover, in data set [3], the selectivity ratio is 8. In data set [2], this compound gave an MIC of 12.5 µM.
`COc1ccc(-c2cc(-c3cc(OC)c(OC)c(OC)c3)nc(-c3ccccn3)n2)cc1` returned a CC50 in data set [1] of 50 µM. Moreover, in data set [2], the MIC turned out to be 25 µM.
`COc1cc(-c2cc(-c3cc(OC)c(OC)c(OC)c3)nc(N)n2)cc(OC)c1OC` returned an MIC in data set [2] of more than 100 µM.

What is called CC50 is the concentration giving 50% cytotoxicity. The low end stands for greater toxicity to the cells, the high end for lower toxicity to the cells. What is called MIC is the lowest concentration that inhibits growth of the organism. Lower therefore signals inhibition by little substance.
